As a reminder, the EC50 is the midpoint of the concentration-response curve. Lower therefore signals a more potent agent. One may read the Emax as the size of the effect at its maximum, as opposed to the concentration needed.

Results on five compounds are retold here after US12679878B2, “CRF2 receptor agonists and their use in therapy” (SANOFI, priority 2020, dated 2026).

Starred links: 1 amine or outer side, 2 acyl side, 3 side chain; linkers in the order of their positions; H or OH if unused. Non-standard residues stand in square brackets, D forms with d. Residues, ends and D or L forms follow the SMILES beside them. Groups on a side chain read outwards from the residue. *: point of attachment. C18 diacid = O=C(O)CCCCCCCCCCCCCCCCC(=O)*; γGlu = O=C(O)[C@H](CCC(=O)[*:2])N[*:1]; Palmitoyl = CCCCCCCCCCCCCCCC(=O)*; AEEA = NCCOCCOCC(=O)O; Aib = CC(C)(N)C(=O)O

Holding throughout (format): cell-based
In experiment [1] the test system is rat CRF2R α receptor. Description: cAMP agonism at rat CRF2R α receptor in A7R5 rat aortic smooth muscle cells (Example 8). The following applies: cAMP HTRF, A7R5 rat aortic smooth muscle cell line, 0% HSA. The method, boiled down:
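Potency (EC50) is the concentration reaching half-maximal activation, with responses scaled so that 1000 nM urocortin 2 equals 100%. Intracellular cAMP was quantified by homogeneous time-resolved fluorescence at 665/620 nm, 1 h after lysis-buffer reagents. Compound stimulation lasted 30 min at room temperature on 2000 IBMX-treated (2 mM) cells per well in HEPES-buffered HBSS.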
(Time-resolved FRET reads energy transfer from a long-lived donor to a nearby acceptor.)

Experiment [2] has as its target T1, CRF1R receptor (Homo sapiens, UniProt P34998).
T1 construct: host or cells: CHO-K1 clone 2
T1 sequence (P34998 24-415): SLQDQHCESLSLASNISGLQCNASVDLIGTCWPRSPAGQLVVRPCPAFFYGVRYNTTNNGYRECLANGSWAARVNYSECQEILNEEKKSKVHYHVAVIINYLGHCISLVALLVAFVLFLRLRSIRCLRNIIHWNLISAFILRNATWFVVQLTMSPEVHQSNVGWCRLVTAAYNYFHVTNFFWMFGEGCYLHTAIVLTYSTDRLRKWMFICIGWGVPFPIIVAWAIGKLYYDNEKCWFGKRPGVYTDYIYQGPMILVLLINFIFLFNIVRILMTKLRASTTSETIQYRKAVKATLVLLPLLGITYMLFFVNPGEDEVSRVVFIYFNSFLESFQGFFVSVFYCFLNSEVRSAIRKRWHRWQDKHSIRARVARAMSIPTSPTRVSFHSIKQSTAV
In words: cAMP activity at anti-target CRF1R, CHO-K1 cell line clone 2 (Example 19.10). The following applies: 100% = Sauvagine at 100 nM; CRF1R CHO-K1 clone 2. The method, boiled down:
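The cAMP read-out used the same protocol as the previous assay, except that Sauvagine at 100 nM set the 100% activation control. Cells were CHO-K1 clone 2 overexpressing CRF1R, cultured in F12 medium with 10% FBS and G418 and stored frozen until use.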

Experiment [3] concerns the target T1, CRF1R receptor. Description: cAMP activity at anti-target CRF1R, CRF1R-overexpression CHO cell line (Example 9). The note with it: CRF1R-overexpression CHO cell line; read-out: Emax (%). The method, boiled down:
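Using thawed CRF1R-overexpressing CHO cells at 2000 per well, compound is applied for 30 min at RT in HBSS/HEPES buffer with IBMX. Cellular cAMP content is determined via HTRF, and percent activity is calculated against 1000 nM UCN2 defined as 100%.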

`CCCCCCCCCCCCCCCC(=O)N[C@@H](CCC(=O)NCCCC[C@H](NC(=O)[C@H](CC(C)C)NC(=O)[C@H](CCCCN)NC(=O)[C@@H](NC(=O)[C@@H]1CCCN1C(=O)[C@H](NC(=O)[C@H](CC(=O)O)NC(=O)[C@H](CC(C)C)NC(=O)[C@H](CO)NC(=O)[C@H](CC(C)C)NC(=O)[C@@H](NC(=O)[C@@H](N)[C@@H](C)CC)C(C)C)C(C)C)[C@@H](C)O)C(=O)N[C@@H](CCC(N)=O)C(=O)N[C@@H](CCCCN)C(=O)N[C@@H](CC(C)C)C(=O)N[C@@H](CC(C)C)C(=O)N[C@@H](CCCCN)C(=O)N[C@@H](CCC(N)=O)C(=O)N[C@@H](CCC(=O)O)C(=O)N[C@@H](CCCNC(=N)N)C(=O)N[C@@H](CCC(N)=O)C(=O)N[C@@H](CCCNC(=N)N)C(=O)N[C@@H](CCCCN)C(=O)N[C@@H](CCC(=O)O)C(=O)N[C@@H](CCCNC(=N)N)C(=O)N[C@@H](CCC(=O)O)C(=O)NC(C)(C)C(=O)N[C@@H](C)C(=O)N[C@@H](CCC(=O)O)C(=O)N[C@@H](CCCCN)C(=O)N[C@@H](CC(N)=O)C(=O)N[C@@H](CCCCN)C(=O)N[C@@H](CCCNC(=N)N)C(=O)N[C@H](C(=O)N[C@@H](CC(C)C)C(=O)N[C@@H](CCC(=O)O)C(=O)N[C@@H](CCCNC(=N)N)C(=O)N[C@H](C(N)=O)C(C)C)[C@@H](C)CC)C(=O)O` [SEQ ID NO: 225, IVLSLDvPTKLK*QKLLKQERQRKEREAibAEKNKRILERV-NH2] (H-IVLSLD[dV]PTKLK([γGlu-Palmitoyl])QKLLKQERQRKERE[Aib]AEKNKRILERV-NH2; N-terminus assumed) yielded a concentration giving a half-maximal response (EC50) in experiment [1] of 0.12 nM. This compound also came in with a maximal effect (Emax) in experiment [2] of 58.9%.
Taken in the same sequence, the figures for `CCCCCCCCCCCCCCCC(=O)N[C@@H](CCC(=O)NCCCC[C@H](NC(=O)[C@H](CC(C)C)NC(=O)CNC(=O)[C@@H](NC(=O)[C@@H]1CCCN1C(=O)[C@H](NC(=O)[C@H](CC(=O)O)NC(=O)[C@H](CC(C)C)NC(=O)[C@H](CO)NC(=O)[C@H](CC(C)C)NC(=O)[C@@H](NC(=O)[C@@H](N)[C@@H](C)CC)C(C)C)C(C)C)[C@@H](C)CC)C(=O)N[C@@H](CCC(N)=O)C(=O)N[C@@H](CCCCN)C(=O)N[C@@H](CC(C)C)C(=O)N[C@@H](CC(C)C)C(=O)N[C@@H](CCCCN)C(=O)N[C@@H](CCC(N)=O)C(=O)N[C@@H](CCC(N)=O)C(=O)N[C@@H](CCCNC(=N)N)C(=O)N[C@@H](CCC(N)=O)C(=O)N[C@@H](CCCNC(=N)N)C(=O)N[C@@H](CCCCN)C(=O)N[C@@H](CCC(=O)O)C(=O)N[C@@H](CCCNC(=N)N)C(=O)N[C@@H](CCC(N)=O)C(=O)N[C@@H](CCC(N)=O)C(=O)N[C@@H](C)C(=O)N[C@@H](CCC(=O)O)C(=O)N[C@@H](CCCCN)C(=O)N[C@@H](CC(N)=O)C(=O)N[C@@H](CCCCN)C(=O)N[C@@H](CCCNC(=N)N)C(=O)N[C@H](C(=O)N[C@@H](CC(C)C)C(=O)N[C@@H](CCC(=O)O)C(=O)N[C@@H](CCCNC(=N)N)C(=O)N[C@H](C(N)=O)C(C)C)[C@@H](C)CC)C(=O)O` [SEQ ID NO: 226] (H-IVLSLD[dV]PIGLK([γGlu-Palmitoyl])QKLLKQQRQRKERQQAEKNKRILERV-NH2; N-terminus assumed) were 0.04 nM and 84%.
`CC[C@H](C)[C@H](NC(C)=O)C(=O)N[C@H](C(=O)N[C@@H](CC(C)C)C(=O)N[C@@H](CO)C(=O)N[C@@H](CC(C)C)C(=O)N[C@@H](CC(=O)O)C(=O)N[C@@H](C(=O)N1CCC[C@H]1C(=O)N[C@H](C(=O)NCC(=O)N[C@@H](CC(C)C)C(=O)N[C@@H](CCCCNC(=O)COCCOCCNC(=O)COCCOCCNC(=O)CC[C@H](NC(=O)CCCCCCCCCCCCCCCCC(=O)O)C(=O)O)C(=O)N[C@@H](CCC(N)=O)C(=O)N[C@H](C(=O)N[C@@H](CC(C)C)C(=O)N[C@@H](CC(C)C)C(=O)N[C@@H](CCC(=O)O)C(=O)N[C@@H](CCC(N)=O)C(=O)N[C@@H](CCC(=O)O)C(=O)N[C@@H](CCCNC(=N)N)C(=O)N[C@@H](CCC(N)=O)C(=O)N[C@@H](CCCCN)C(=O)NC(C)(C)C(=O)N[C@@H](CCC(N)=O)C(=O)N[C@@H](CCCNC(=N)N)C(=O)N[C@@H](CCC(=O)O)C(=O)N[C@@H](CCC(N)=O)C(=O)N[C@@H](C)C(=O)N[C@@H](CCC(=O)O)C(=O)N[C@@H](CCCCN)C(=O)N[C@@H](CC(N)=O)C(=O)N[C@@H](CCCCN)C(=O)N[C@@H](CCC(N)=O)C(=O)N[C@H](C(=O)N[C@@H](CC(C)C)C(=O)N[C@@H](CCC(=O)O)C(=O)N[C@@H](CCC(N)=O)C(=O)N[C@H](C(N)=O)C(C)C)[C@@H](C)CC)[C@@H](C)CC)[C@@H](C)CC)C(C)C)C(C)C` [compound 164] (Ac-IVLSLD[dV]PIGLK([AEEA-AEEA-γGlu-C18 diacid])QILLEQERQK[Aib]QREQAEKNKQILEQV-NH2): in experiment [1], the EC50 was determined as 12.6 nM. Also, the Emax in experiment [3] amounted to 25.8%.
`CC[C@H](C)[C@H](NC(C)=O)C(=O)N[C@H](C(=O)N[C@@H](CC(C)C)C(=O)N[C@@H](CO)C(=O)N[C@@H](CC(C)C)C(=O)N[C@@H](CC(=O)O)C(=O)N[C@@H](C(=O)N1CCC[C@H]1C(=O)N[C@H](C(=O)N[C@@H](CCCCN)C(=O)N[C@@H](CC(C)C)C(=O)N[C@@H](CCCCNC(=O)COCCOCCNC(=O)COCCOCCNC(=O)CC[C@H](NC(=O)CCCCCCCCCCCCCCCCC(=O)O)C(=O)O)C(=O)N[C@@H](CCC(N)=O)C(=O)N[C@H](C(=O)N[C@@H](CC(C)C)C(=O)N[C@@H](CC(C)C)C(=O)N[C@@H](CCC(=O)O)C(=O)N[C@@H](CCC(N)=O)C(=O)N[C@@H](C)C(=O)N[C@@H](CCCNC(=N)N)C(=O)N[C@@H](CCC(N)=O)C(=O)N[C@@H](CCCCN)C(=O)NC(C)(C)C(=O)N[C@@H](CCC(N)=O)C(=O)N[C@@H](CCCNC(=N)N)C(=O)N[C@@H](CCC(=O)O)C(=O)N[C@@H](CCC(N)=O)C(=O)N[C@@H](C)C(=O)N[C@@H](CCC(=O)O)C(=O)N[C@@H](CCCCN)C(=O)N[C@@H](CC(N)=O)C(=O)N[C@@H](CCC(=O)O)C(=O)N[C@@H](CCC(N)=O)C(=O)N[C@H](C(=O)N[C@@H](CC(C)C)C(=O)N[C@@H](CCC(=O)O)C(=O)N[C@@H](CCC(N)=O)C(=O)N[C@H](C(N)=O)C(C)C)[C@@H](C)CC)[C@@H](C)CC)[C@@H](C)CC)C(C)C)C(C)C` [compound 165] (Ac-IVLSLD[dV]PIKLK([AEEA-AEEA-γGlu-C18 diacid])QILLEQARQK[Aib]QREQAEKNEQILEQV-NH2) displayed a half-maximal effective concentration (EC50) in experiment [1] of 2.41 nM. Besides, the Emax in experiment [3] was 26.9%.
In the same order, the values of `CC[C@H](C)[C@H](NC(C)=O)C(=O)N[C@H](C(=O)N[C@@H](CC(C)C)C(=O)N[C@@H](CO)C(=O)N[C@@H](CC(C)C)C(=O)N[C@@H](CC(=O)O)C(=O)N[C@@H](C(=O)N1CCC[C@H]1C(=O)N[C@H](C(=O)N[C@@H](CCCCN)C(=O)N[C@@H](CC(C)C)C(=O)N[C@@H](CCCCNC(=O)COCCOCCNC(=O)COCCOCCNC(=O)CC[C@H](NC(=O)CCCCCCCCCCCCCCCCC(=O)O)C(=O)O)C(=O)N[C@@H](CCC(N)=O)C(=O)N[C@H](C(=O)N[C@@H](CC(C)C)C(=O)N[C@@H](CC(C)C)C(=O)N[C@@H](CCC(=O)O)C(=O)N[C@@H](CCC(N)=O)C(=O)N[C@@H](CCC(=O)O)C(=O)N[C@@H](CCCNC(=N)N)C(=O)N[C@@H](CCC(N)=O)C(=O)N[C@@H](CCCCN)C(=O)NC(C)(C)C(=O)N[C@@H](CCC(N)=O)C(=O)N[C@@H](CCCNC(=N)N)C(=O)N[C@@H](CCC(=O)O)C(=O)N[C@@H](CCC(N)=O)C(=O)N[C@@H](C)C(=O)N[C@@H](CCC(=O)O)C(=O)N[C@@H](CCCCN)C(=O)N[C@@H](CC(N)=O)C(=O)N[C@@H](CCC(=O)O)C(=O)N[C@@H](CCC(N)=O)C(=O)N[C@H](C(=O)N[C@@H](CC(C)C)C(=O)N[C@@H](CCC(=O)O)C(=O)N[C@@H](CCC(N)=O)C(=O)N[C@H](C(N)=O)C(C)C)[C@@H](C)CC)[C@@H](C)CC)[C@@H](C)CC)C(C)C)C(C)C` [compound 166] (Ac-IVLSLD[dV]PIKLK([AEEA-AEEA-γGlu-C18 diacid])QILLEQERQK[Aib]QREQAEKNEQILEQV-NH2) are 9.99 nM and 5.94%.
